According to patent publication US12312641B2, “Sensitivity marker for antibody-drug conjugate” (priority 2018, dated 2025):
Where two headings read alike, the source gives them in different places.

Assays:
[1] = test system: Human lung cancer cell line Calu-3; assay: Cell proliferation inhibition test upon SLFN11 knockdown, Calu-3; type: cell-based
Method: Human lung cancer cell line Calu-3 was obtained from ATCC and used for evaluation. Calu-3 cells suspended at 2×10^3 cells/mL in a MEM medium containing a non-essential amino acid solution, a pyruvic acid solution and 10% bovine fetal serum were seeded in a 10 cm cell culture dish at 10 mL/dish. Twenty-four hours after seeding, 100 pmol of ON-TARGETplus SLFN11 siRNA (Dharmacon Inc.) or ON-TARGETplus Non-targeting Control Pool (Dharmacon Inc.) and 30 μL of Lipofectamine™ RNAiMAX Transfection Reagent (Thermo Fisher Scientific Inc.) were suspended in 1 mL of Opti-MEM medium, and the entire amount of the suspension was added to the medium. After 72 hours, the medium was removed and the dish was washed with PBS, then the cells were dissociated and recovered from the dish using 1 mL of TrypLE™ Express. The recovered cells were suspended at 5×10^4 cells/mL in a MEM medium containing a non-essential amino acid solution, a pyruvic acid solution and 10% bovine fetal serum, and seeded in a 96-well cell culture plate at 100 μL/well. Twenty-four hours after seeding, the medium was replaced with a medium containing 100 nM, 33 nM, 11 nM, 3.7 nM, 1.2 nM, 0.41 nM, 0.13 nM, 0.045 nM, or 0 nM of compound (1) or antibody-drug conjugate (1) at 100 μL/well. The molar concentration of antibody-drug conjugate (1) was calculated by setting the average molecular weight to 150,000. Cells were all cultured at 37° C. under 5% CO2. After 72 hours from the medium replacement, ATPlite 1 step detection system (PerkinElmer Inc.) was added at 100 μL/well. The wells were incubated at room temperature for 10 minutes, then the luminescence intensity of each well was measured.
(§1) The cell growth inhibition rate (%) at each condition was calculated using the following calculation formula: Cell growth inhibition rate (%)=100×(1−T/C) • T: Average luminescence intensity of each well to which specimen was added • C: Average luminescence intensity of each well to which 0 nM specimen was added
(§2) The 50% inhibitory concentration at each condition was calculated by fitting to the following calculation formula: Cell viability (%)=(Emax−Emin)×Specimen concentration^γ/((Emax−50)/(50−Emin)×IC50^γ+Specimen concentration^γ)+Emin • Emax: maximum cell growth inhibition rate (%) • Emin: minimum cell growth inhibition rate (%) • IC50: 50% inhibitory concentration • γ: Hill coefficient
(§3) The fitting to the calculation formula was performed using SAS Systems Release 9.2 (SAS Institute Inc.).

[2] = test system: Human pharyngeal cancer cell line FaDu; assay: Cell proliferation inhibition test upon SLFN11 knockdown, FaDu; type: cell-based; settings: for Cell proliferation inhibitory effect upon SLFN11 knockdown: FaDu cell lines, SLFN11 siRNA vs Non-targeting Control; for Fold change (SLFN11/Non-targeting Control): ratio of IC50
Method: Human pharyngeal cancer cell line FaDu was obtained from ATCC and used for evaluation. FaDu cells suspended at 2×10^3 cells/mL in a MEM medium containing a non-essential amino acid solution, a pyruvic acid solution and 10% bovine fetal serum were seeded in a 10 cm cell culture dish at 10 mL/dish. Twenty-four hours after seeding, 100 pmol of ON-TARGETplus SLFN11 siRNA (Dharmacon Inc.) or ON-TARGETplus Non-targeting Control Pool (Dharmacon Inc.) and 30 μL of Lipofectamine™ RNAiMAX Transfection Reagent (Thermo Fisher Scientific Inc.) were suspended in 1 mL of Opti-MEM medium, and the entire amount of the suspension was added to the medium. After 72 hours, the medium was removed and the dish was washed with PBS, then the cells were dissociated and recovered from the dish using 1 mL of TrypLE™ Express. The recovered cells were suspended at 5×10^4 cells/mL in a MEM medium containing a non-essential amino acid solution, a pyruvic acid solution and 10% bovine fetal serum, and were seeded in a 96-well cell culture plate at 100 μL/well. Twenty-four hours after seeding, the medium was replaced with a medium containing 100 nM, 33 nM, 11 nM, 3.7 nM, 1.2 nM, 0.41 nM, 0.13 nM, 0.045 nM, or 0 nM of compound (1) or antibody-drug conjugate (1) at 100 μL/well. The molar concentration of antibody-drug conjugate (1) was calculated by setting the average molecular weight to 150,000. Cells were all cultured at 37° C. under 5% CO2. After 72 hours from the medium replacement, ATPlite 1 step detection system (PerkinElmer Inc.) was added at 100 μL/well. The wells were incubated at room temperature for 10 minutes, then the luminescence intensity of each well was measured.
as §1, with “growth inhibition rate(%) at each” for “growth inhibition rate (%) at each”
as §2, §3

CC[C@@]1(O)C(=O)OCc2c1cc1n(c2=O)Cc2c-1nc1cc(F)c(C)c3c1c2[C@@H](NC(=O)CO)CC3 [Compound (1)]
Cell proliferation inhibitory effect upon SLFN11 knockdown ([1]; Calu-3 cell lines, SLFN11 siRNA vs Non-targeting Control): attenuated by SLFN11 knockdown
Fold change (SLFN11/Non-targeting Control) ([1]; Calu-3 cells, ratio of IC50): >4.8
IC50 ([1]; Homo sapiens, Calu-3, 72 h, read-out: IC50 (nM) Non-targeting Control Pool): 20.9 nM
IC50 ([1]; Homo sapiens, Calu-3, 72 h, read-out: IC50 (nM) SLFN11 siRNA): > 100 nM
Cell proliferation inhibitory effect upon SLFN11 knockdown [2]: attenuated by SLFN11 knockdown
Fold change (SLFN11/Non-targeting Control) ([2]; FaDu cells): 8.6
IC50 ([2]; Homo sapiens, FaDu, 72 h, read-out: IC50 (nM) Non-targeting Control Pool): 3.6 nM
IC50 ([2]; Homo sapiens, FaDu, 72 h, read-out: IC50 (nM) SLFN11 siRNA): 30.8 nM

B1: antibody-drug conjugate (1): humanized anti-hTROP2 antibody (SEQ ID NO: 1 residues 20-470, SEQ ID NO: 2 residues 21-234) conjugated to the exatecan-derivative drug-linker via a thioether bond (conjugate, chains of the INN, looked up)
VH: QVQLVQSGAEVKKPGASVKVSCKASGYTFTTAGMQWVRQAPGQGLEWMGWINTHSGVPKYAEDFKGRVTISADTSTSTAYLQLSSLKSEDTAVYYCARSGFGSSYWYFDVWGQGTLVTVSS
VL: DIQMTQSPSSLSASVGDRVTITCKASQDVSTAVAWYQQKPGKAPKLLIYSASYRYTGVPSRFSGSGSGTDFTLTISSLQPEDFAVYYCQQHYITPLTFGQGTKLEIK
modifications: exatecan-derivative drug-linker
IC50 ([1]; Calu-3 cells, Non-targeting Control Pool, 72 hours, ATPlite, read-out: IC50 (nM) Non-targeting Control Pool): > 100 nM
IC50 ([1]; Calu-3 cells, SLFN11 siRNA knockdown, 72 hours, ATPlite, read-out: IC50 (nM) SLFN11 siRNA): > 100 nM
Cell proliferation inhibitory effect upon SLFN11 knockdown [2]: attenuated by SLFN11 knockdown
IC50 ([2]; FaDu cells, Non-targeting Control Pool, 72 hours, ATPlite, read-out: IC50 (nM) Non-targeting Control Pool): 42.6 nM
IC50 ([2]; FaDu cells, SLFN11 siRNA knockdown, 72 hours, ATPlite, read-out: IC50 (nM) SLFN11 siRNA): > 100 nM
Fold change (SLFN11/Non-targeting Control) ([2]; FaDu cells): >2.3
